Experimental data as given in patent US8518947B2, “(Heterocycle/tetrahydropyridine)-(piperazinyl)-1-alcanone and (heterocycle/dihydropyrrolidine)-(piperazinyl)-1-alcanone derivatives, and use thereof as p75 inhibitors” (Sanofi, priority 2009, dated 2013).

melting point [°C] | SMILES
191 to 192 | O=C(O)c1ccc(N2C3CCC2CN(CC(=O)N2CC=C(c4cccc5ccsc45)CC2)C3)nc1 [85]
142 to 143 | O=C(CN1CCN(c2ccc(C(F)(F)F)cn2)CC1)N1CC=C(c2ccc3c(c2)OCCO3)CC1 [Compound 21, 1-[4-(2,3-dihydrobenzo[1,4]dioxin-6-yl)-3,6-dihydro-2H-pyridin-1-yl]-2-[4-(5-trifluoromethylpyridin-2-yl)piperazin-1-yl]ethanone]
230 to 233 | O=C(CN1CCN(c2ccc(C(F)(F)F)cn2)C(=O)C1)N1CC=C(c2c[nH]c3ccccc23)CC1 [Compound 30, 4-{2-[4-(1H-indol-3-yl)-3,6-dihydro-2H-pyridin-1-yl]-2-oxoethyl}-1-(5-trifluoromethylpyridin-2-yl)piperazin-2-one]
143 to 146 | O=C(CN1CCN(c2ccc(C(F)(F)F)cn2)C(=O)C1)N1CC=C(c2cccc3ccsc23)CC1 [Compound 31, 4-[2-(4-benzo[b]thiophen-7-yl-3,6-dihydro-2H-pyridin-1-yl)-2-oxoethyl]-1-(5-trifluoromethylpyridin-2-yl)piperazin-2-one]
151 to 152 | O=C(CN1CCN(c2ccc(C(F)(F)F)cn2)C(=O)C1)N1CC=C(c2cccc3ccoc23)CC1 [Compound 32, 4-[2-(4-benzofuran-7-yl-3,6-dihydro-2H-pyridin-1-yl)-2-oxoethyl]-1-(5-trifluoromethylpyridin-2-yl)piperazin-2-one]
155 to 156 | O=C(CN1CCN(c2ccc(C(F)(F)F)cn2)CC1)N1CC=C(c2cccc3ccoc23)CC1 [Compound 33, 1-(4-benzofuran-7-yl-3,6-dihydro-2H-pyridin-1-yl)-2-[4-(5-trifluoromethylpyridin-2-yl)piperazin-1-yl]ethanone]
142 to 143 | C[C@@H]1CN(c2cncnc2)C[C@H](C)N1CC(=O)N1CC=C(c2cccc3ccoc23)CC1 [Compound 35, 1-(4-benzofuran-7-yl-3,6-dihydro-2H-pyridin-1-yl)-2-((2S,6R)-2,6-dimethyl-4-pyrimidin-5-ylpiperazin-1-yl)ethanone]
119 to 120 | C[C@@H]1CN(c2ccc(C(F)(F)F)nc2)C[C@H](C)N1CC(=O)N1CC=C(c2cccc3ccoc23)CC1 [Compound 37, 1-(4-benzofuran-7-yl-3,6-dihydro-2H-pyridin-1-yl)-2-[(2S,6R)-2,6-dimethyl-4-(6-trifluoromethylpyridin-3-yl)piperazin-1-yl]ethanone]
205 to 206 | Cc1cc2cc(C3=CCN(C(=O)CN4[C@H](C)CN(c5ncc(F)cn5)C[C@@H]4C)CC3)ccc2s1 [Compound 38, 2-[(2S,6R)-4-(5-fluoropyrimidin-2-yl)-2,6-dimethylpiperazin-1-yl]-1-[4-(2-methylbenzo[b]thiophen-5-yl)-3,6-dihydro-2H-pyridin-1-yl]ethanone]
217 to 218 | Cc1cc2cc(C3=CCN(C(=O)CN4[C@H](C)CN(c5ccc(C(F)(F)F)nc5)C[C@@H]4C)CC3)ccc2s1 [Compound 39, 2-[(2S,6R)-2,6-dimethyl-4-(6-trifluoromethylpyridin-3-yl)piperazin-1-yl]-1-[4-(2-methylbenzo[b]thiophen-5-yl)-3,6-dihydro-2H-pyridin-1-yl]ethanone]
191 to 192 | Cc1cc2cc(C3=CCN(C(=O)CN4[C@H](C)CN(c5cncnc5)C[C@@H]4C)CC3)ccc2s1 [Compound 40, 2-((2S,6R)-2,6-dimethyl-4-pyrimidin-5-ylpiperazin-1-yl)-1-[4-(2-methylbenzo[b]thiophen-5-yl)-3,6-dihydro-2H-pyridin-1-yl]ethanone]
218 to 220 | C[C@@H]1CN(c2cncnc2)C[C@H](C)N1CC(=O)N1CC=C(c2ccc3sccc3c2)CC1 [Compound 41, 1-(4-benzo[b]thiophen-5-yl-3,6-dihydro-2H-pyridin-1-yl)-2-((2S,6R)-2,6-dimethyl-4-pyrimidin-5-ylpiperazin-1-yl)ethanone]
169 to 170 | O=C(CN1CCN(c2ccc(C(F)(F)F)cn2)C(=O)C1)N1CC=C(c2ccc3sccc3c2)CC1 [Compound 43, 4-[2-(4-benzo[b]thiophen-5-yl-3,6-dihydro-2H-pyridin-1-yl)-2-oxoethyl]-1-(5-trifluoromethylpyridin-2-yl)piperazin-2-one]
200 to 201 | C[C@@H]1CN(c2ccc(C(F)(F)F)nc2)C[C@H](C)N1CC(=O)N1CC=C(c2ccc3c(c2)OCCO3)CC1 [Compound 45, 1-[4-(2,3-dihydrobenzo[1,4]dioxin-6-yl)-3,6-dihydro-2H-pyridin-1-yl]-2-[(2S,6R)-2,6-dimethyl-4-(6-trifluoromethylpyridin-3-yl)piperazin-1-yl]ethanone]
170 to 171 | O=C(CN1CCN(c2ccc(C(F)(F)F)cn2)CC1)N1CC=C(c2ccc3sccc3c2)CC1 [Compound 46, 1-(4-benzo[b]thiophen-5-yl-3,6-dihydro-2H-pyridin-1-yl)-2-[4-(5-trifluoromethylpyridin-2-yl)piperazin-1-yl)ethanone]
136 to 137 | C[C@@H]1CN(c2ccc(C(F)(F)F)nc2)C[C@H](C)N1CC(=O)N1CC=C(c2ccc3sccc3c2)CC1 [Compound 47, 1-(4-benzo[b]thiophen-5-yl-3,6-dihydro-2H-pyridin-1-yl)-2-[(2S,6R)-2,6-dimethyl-4-(6-trifluoromethylpyridin-3-yl)piperazin-1-yl)ethanone]
161 to 162 | O=C(CN1CCN(c2ccc(C(F)(F)F)cn2)C(=O)C1)N1CC=C(c2ccc3c(c2)OCCO3)CC1 [Compound 49, 4-{2-[4-(2,3-dihydrobenzo[1,4]dioxin-6-yl)-3,6-dihydro-2H-pyridin-1-yl]-2-oxoethyl}-1-(5-trifluoromethylpyridin-2-yl)piperazin-2-one]
120 to 121 | O=C(CN1CCN(c2ccc(C(F)(F)F)cn2)CC1)N1CC=C(c2cccc3ccsc23)CC1 [Compound 50, 1-(4-benzo[b]thiophen-7-yl-3,6-dihydro-2H-pyridin-1-yl)-2-[4-(5-trifluoromethylpyridin-2-yl)piperazin-1-yl]ethanone]
130 to 132 | COC(=O)c1ccc(N2C[C@@H](C)N(CC(=O)N3CC=C(c4ccc5sccc5c4)CC3)[C@@H](C)C2)nc1 [Compound 52, Methyl 6-{(3S,5R)-4-[2-(4-benzo[b]thiophen-5-yl-3,6-dihydro-2H-pyridin-1-yl)-2-oxoethyl]-3,5-dimethylpiperazin-1-yl}nicotinate]
195 to 196 | C[C@@H]1CN(c2cncnc2)C[C@H](C)N1CC(=O)N1CC=C(c2cccc3ccsc23)CC1 [Compound 55, 1-(4-benzo[b]thiophen-7-yl-3,6-dihydro-2H-pyridin-1-yl)-2-((2S,6R)-2,6-dimethyl-4-pyrimidin-5-ylpiperazin-1-yl)ethanone]
272 to 274 | C[C@@H]1CN(c2ccc(C(=O)O)cn2)C[C@H](C)N1CC(=O)N1CC=C(c2cccc3ccoc23)CC1 [Compound 57, 6-{(3S,5R)-4-[2-(4-benzofuran-7-yl-3,6-dihydro-2H-pyridin-1-yl)-2-oxoethyl]-3,5-dimethylpiperazin-1-yl}nicotinic acid]
154 to 155 | O=C(CN1CCN(c2ccc(C(F)(F)F)cn2)C(=O)C1)N1CC=C(c2ccc3occc3c2)CC1 [Compound 60, 4-[2-(4-benzofuran-5-yl-3,6-dihydro-2H-pyridin-1-yl)-2-oxoethyl]-1-(5-trifluoromethylpyridin-2-yl)piperazin-2-one]
